For nine compounds, Kd results are on record in ChEMBL document CHEMBL1148803, “Polyfluorinated bis-styrylbenzene beta-amyloid plaque binding ligands” (J Med Chem, 2007).

pKd: −log10 of the molar value.

The experiment can be described thus: Binding affinity to beta amyloid protein 1-40 by fluorescence titration. The arrangement: species or system Homo sapiens.
Compound `Oc1ccc(/C=C/c2ccc(/C=C/c3ccc(O)cc3)cc2)cc1` had a pKd of 7.96.

For `FC(F)(F)Oc1ccc(/C=C/c2ccc(/C=C/c3ccc(OC(F)(F)F)cc3)cc2)cc1`, the pKd is 8.00.

`O=C(O)c1cc(/C=C/c2c(F)c(F)c(/C=C/c3ccc(O)c(C(=O)O)c3)c(F)c2F)ccc1O` had a pKd of 8.03.

The compound `FC(F)(F)c1ccc(/C=C/c2ccc(/C=C/c3ccc(C(F)(F)F)cc3)cc2)cc1` gave a pKd of 8.02.

As to `Oc1ccc(/C=C/c2c(F)c(F)c(/C=C/c3ccc(O)cc3)c(F)c2F)cc1`, the pKd was 10.52.

Compound `O=C(O)c1cc(/C=C/c2ccc(/C=C/c3ccc(O)c(C(=O)O)c3)c(F)c2)ccc1O` had a pKd of 5.47.

With `FC(F)(F)c1cccc(/C=C/c2ccc(/C=C/c3cccc(C(F)(F)F)c3)cc2)c1`, the pKd was 7.59.

With `FC(F)(F)Oc1cccc(/C=C/c2ccc(/C=C/c3cccc(OC(F)(F)F)c3)cc2)c1`, the pKd is 7.80.

On to `Cc1ccc2c(c1)sc(-c1ccc(N(C)C)cc1)[n+]2C` [THIOFLAVIN T], for which the pKd is 6.25.
